Tests used:
[1] = system: Felis catus; experiment: In vivo inhibition of beta-1 adrenergic receptor in cat assessed as inhibition of isoproterenol-induced tachycardia administered as 30 mins of infusion measured at 30 mins by cardiotachometer; format: functional; conditions: 0.5 h
[2] = system: Felis catus; experiment: In vivo inhibition of beta-2 adrenergic receptor in cat assessed as inhibition of isoproterenol-induced vasodepressor response at ED50 administered as 30 mins of infusion measured at 30 mins relative to control; format: functional

Compound | ED50 [1] [mg/kg] | inhibition (INH) [2] [%]
CC(C)NCC(O)COc1ccc(NC(N)=O)cc1 (centres undefined) | 0.631 | 20
CC(C)(C)NCC(O)COc1ccc(NC(N)=O)cc1 (centres undefined) | 0.101 | 0
CNC(=O)Nc1ccc(OCC(O)CNC(C)C)cc1 (centres undefined) | 0.07 | 29
CNC(=O)Nc1ccc(OCC(O)CNC(C)(C)C)cc1 (centres undefined) | 0.074 | 0
CNC(=O)Nc1ccc(OCC(O)CNC(C)C)c(Cl)c1 (centres undefined) | 0.104 | 26
CNC(=O)Nc1ccc(OCC(O)CNC(C)(C)C)c(Cl)c1 (centres undefined) | 0.025 | 52
CNC(=O)Nc1ccc(OCC(O)CNC(C)C)c(Br)c1 (centres undefined) | 0.033 | 63
CNC(=O)Nc1ccc(OCC(O)CNC(C)C)c(I)c1 (centres undefined) | 0.1 | 33
CNC(=O)Nc1ccc(OCC(O)CNC(C)C)c(C)c1 (centres undefined) | 0.17 | 32
CCCc1cc(NC(=O)NC)ccc1OCC(O)CNC(C)(C)C (centres undefined) | 0.093 | 7
CNC(=O)Nc1ccc(OCC(O)CNC(C)C)c(C(C)=O)c1 (centres undefined) | 0.395 | 43
C=CCc1cc(NC(=O)NC)ccc1OCC(O)CNC(C)(C)C (centres undefined) | 0.056 | 74
CCNC(=O)Nc1ccc(OCC(O)CNC(C)C)cc1 (centres undefined) | 0.427 | 0
CCNC(=O)Nc1ccc(OCC(O)CNC(C)(C)C)cc1 (centres undefined) | 0.201 | 34
CCNC(=O)Nc1ccc(OCC(O)CNC(C)C)c(Cl)c1 (centres undefined) | 0.188 | 0
CCNC(=O)Nc1ccc(OCC(O)CNC(C)C)c(Br)c1 (centres undefined) | 0.069 | 19
CCNC(=O)Nc1ccc(OCC(O)CNC(C)(C)C)c(I)c1 (centres undefined) | 0.023 | 6
CCNC(=O)Nc1ccc(OCC(O)CNC(C)C)c(C)c1 (centres undefined) | 0.234 | 27
CCNC(=O)Nc1ccc(OCC(O)CNC(C)(C)C)c(C)c1 (centres undefined) | 0.057 | 58
CCNC(=O)Nc1ccc(OCC(O)CNC(C)COP)c(C)c1 (centres undefined) | 0.885 | 18
CCNC(=O)Nc1ccc(OCC(O)CNC(C)C)c(CC)c1 (centres undefined) | 0.118 | 33

Compound | ED50 [1] [mg/kg] | inhibition (INH) [2] [%]
CCNC(=O)Nc1ccc(OCC(O)CNC(C)(C)C)c(CC)c1 (centres undefined) | 0.08 | 2
C=CCc1cc(NC(=O)NCC)ccc1OCC(O)CNC(C)C (centres undefined) | 0.18 | 68
C=CCc1cc(NC(=O)NCC)ccc1OCC(O)CNC(C)(C)C (centres undefined) | 0.038 | 30
C=CCc1cc(NC(=O)NCC)ccc1OCC(O)CNC(C)(C)CO (centres undefined) | 0.224 | 50
C=CCc1cc(NC(=O)NCC)ccc1OCC(O)CNC1CC1 (centres undefined) | 1.14 | 37
CCNC(=O)Nc1ccc(OCC(O)CNC(C)C)c(OCC)c1 (centres undefined) | 0.295 | 41
CCNC(=O)Nc1ccc(OCC(O)CNC(C)C)c(O)c1 (centres undefined) | 0.521 | 15
CCNC(=O)Nc1ccc(OCC(O)CNC(C)C)c(SC)c1 (centres undefined) | 0.198 | 32
CCCNC(=O)Nc1ccc(OCC(O)CNC(C)C)cc1 (centres undefined) | 0.147 | 0
CCCNC(=O)Nc1ccc(OCC(O)CNC(C)(C)C)cc1 (centres undefined) | 0.033 | 0
CCCNC(=O)Nc1ccc(OCC(O)CNC(C)C)c(I)c1 (centres undefined) | 0.077 | 100
CCCNC(=O)Nc1ccc(OCC(O)CNC(C)C)c(C)c1 (centres undefined) | 0.061 | 59
CCCNC(=O)Nc1ccc(OCC(O)CNC(C)(C)C)c(C)c1 (centres undefined) | 0.044 | 0
C=CCc1cc(NC(=O)NCCC)ccc1OCC(O)CNC(C)C (centres undefined) | 0.213 | 15
CCCCNC(=O)Nc1ccc(OCC(O)CNC(C)C)cc1 (centres undefined) | 0.416 | 0
CCCCNC(=O)Nc1ccc(OCC(O)CNC(C)(C)C)cc1 (centres undefined) | 0.048 | 0
CCCCNC(=O)Nc1ccc(OCC(O)CNC(C)(C)C)c(Cl)c1 (centres undefined) | 0.008 | 0
CCCCNC(=O)Nc1ccc(OCC(O)CNC(C)C)c(C)c1 (centres undefined) | 0.046 | 0
CCCCNC(=O)Nc1ccc(OCC(O)CNC(C)(C)C)c(C)c1 (centres undefined) | 0.012 | 11
CCCCCCNC(=O)Nc1ccc(OCC(O)CNC(C)C)cc1 (centres undefined) | 0.274 | 0
CCCCCCNC(=O)Nc1ccc(OCC(O)CNC(C)(C)C)cc1 (centres undefined) | 0.094 | 30

Compound | ED50 [1] [mg/kg] | inhibition (INH) [2] [%]
CCCCCCNC(=O)Nc1ccc(OCC(O)CNC(C)C)c(C)c1 (centres undefined) | 0.189 | 19
CCCCCCNC(=O)Nc1ccc(OCC(O)CNC(C)(C)C)c(C)c1 (centres undefined) | 0.03 | 50
CCCCCCNC(=O)Nc1ccc(OCC(O)CNC(C)C)c(C(C)=O)c1 (centres undefined) | 0.182 | 0
CCCCCCCCNC(=O)Nc1ccc(OCC(O)CNC(C)C)c(C)c1 (centres undefined) | 0.169 | 28
CCCCCCCCNC(=O)Nc1ccc(OCC(O)CNC(C)(C)C)c(C)c1 (centres undefined) | 0.08 | 11
CC(C)NC(=O)Nc1ccc(OCC(O)CNC(C)(C)C)cc1 (centres undefined) | 0.095 | 24
Cc1cc(NC(=O)NC(C)C)ccc1OCC(O)CNC(C)C (centres undefined) | 0.438 | 57
Cc1cc(NC(=O)NC(C)C)ccc1OCC(O)CNC(C)(C)C (centres undefined) | 0.049 | 5
C=CCNC(=O)Nc1ccc(OCC(O)CNC(C)C)cc1 (centres undefined) | 0.262 | 70
C=CCNC(=O)Nc1ccc(OCC(O)CNC(C)(C)C)cc1 (centres undefined) | 0.089 | 6
C=CCNC(=O)Nc1ccc(OCC(O)CNC(C)C)c(Cl)c1 (centres undefined) | 0.131 | 43
C=CCNC(=O)Nc1ccc(OCC(O)CNC(C)(C)C)c(Cl)c1 (centres undefined) | 0.022 | 19
C=CCNC(=O)Nc1ccc(OCC(O)CNC(C)C)c(C)c1 (centres undefined) | 0.107 | 12
C=CCNC(=O)Nc1ccc(OCC(O)CNC(C)(C)C)c(C)c1 (centres undefined) | 0.045 | 32
CC(C)(C)NCC(O)COc1ccc(NC(=O)Nc2ccc(Cl)cc2)cc1 (centres undefined) | 0.403 | 39
CC(C)NCC(O)COc1ccc(NC(=O)NC2CCCCC2)cc1Cl (centres undefined) | 0.252 | 14
CCNC(=O)Nc1ccccc1OCC(O)CNC(C)C (centres undefined) | 3.24 | 103
CC(C)NCC(O)COc1cccc(NC(N)=O)c1 (centres undefined) | 0.028 | 58
CC(=O)Nc1ccc(OCC(O)CNC(C)C)cc1 (centres undefined) [PRACTOLOL] | 0.167 | 8
CC(C)NCC(O)COc1cccc2ccccc12 (centres undefined) [PROPRANOLOL] | 0.062 | 85
